Read-outs that look alike come from different tables or passages of the source.
Key:
[1] = system: SARS-CoV-2; settings: known values of FDA approved drugs; cited from earlier work
[2] = system: SARS-CoV-2; assay type: cell-based
[3] = biological target: ACE2 binding to SARS-CoV-2 S1-RBD (Homo sapiens, UniProt Q9BYF1); test: ELISA of ACE2/S1-RBD inhibitory activity; parameters: species or system human ACE2 / SARS-CoV-2; settings: recombinant 2019-nCoV S1-RBD coated plate, read-out: IC50 inhibiting ACE2 binding to SARS-CoV-2 S1-RBD
[4] = system: VeroE6-EGFP cells; settings: no virus

Sequence of ACE2 binding to SARS-CoV-2 S1-RBD (Q9BYF1 18-740): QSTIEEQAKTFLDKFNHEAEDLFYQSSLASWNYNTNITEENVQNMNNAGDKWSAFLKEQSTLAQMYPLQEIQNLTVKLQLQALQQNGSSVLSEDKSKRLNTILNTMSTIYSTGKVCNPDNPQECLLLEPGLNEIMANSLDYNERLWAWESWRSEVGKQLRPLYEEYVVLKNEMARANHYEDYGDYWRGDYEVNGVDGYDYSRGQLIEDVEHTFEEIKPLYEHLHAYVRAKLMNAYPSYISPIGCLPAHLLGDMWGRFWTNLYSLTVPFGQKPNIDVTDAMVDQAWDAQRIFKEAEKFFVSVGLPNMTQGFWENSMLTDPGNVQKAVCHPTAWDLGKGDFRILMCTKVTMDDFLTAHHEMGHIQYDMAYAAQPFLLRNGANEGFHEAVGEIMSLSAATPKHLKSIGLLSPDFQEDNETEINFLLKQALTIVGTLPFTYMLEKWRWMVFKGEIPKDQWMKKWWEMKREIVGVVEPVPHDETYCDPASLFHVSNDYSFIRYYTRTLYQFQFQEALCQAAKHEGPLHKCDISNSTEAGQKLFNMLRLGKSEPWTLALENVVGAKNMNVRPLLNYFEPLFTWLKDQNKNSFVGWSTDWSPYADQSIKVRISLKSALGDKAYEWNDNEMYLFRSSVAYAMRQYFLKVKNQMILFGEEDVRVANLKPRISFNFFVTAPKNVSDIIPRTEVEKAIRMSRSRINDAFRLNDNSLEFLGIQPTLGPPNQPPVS

Molecule | EC50 [1] [µM] | EC50 [2] [µM] | IC50 [3] [nM] | CC50 [4] [µM]
CC(C)(C)NC(=O)[C@@H]1CN(Cc2cccnc2)CCN1C[C@@H](O)C[C@@H](Cc1ccccc1)C(=O)N[C@H]1c2ccccc2C[C@H]1O [Indinavir] | 59.1 | – | – | –
Nc1nc2c(ncn2CCC(CO)CO)c(=O)[nH]1 [Penciclovir] | 96 | – | – | –
Kobophenol A | – | 71.6 | 1810 ± 40 | > 100
